Tested on: arthritis induced by injection of type II collagen in the mouse
Experiment: Model of arthritis induced by type II collagen in mice (CIA), hind paw plethysmometry
Type: in vivo
Conditions: for Total hind paw volume (sum of both hind paws) / Oedema (difference in paw volume from basal values on day 21) in both hind paws: group mean n=10
Protocol: The aim of the study was to determine the anti-inflammatory activity of the test item in a model of arthritis induced by injection of type II collagen in the mouse (CIA) and to compare the activity of two different formulations: micronized and non-micronized.
Induction of arthritis was carried out by an initial exposure to type II bovine collagen by a subcutaneous injection at the base of the tail (induction phase).
After a recovery time of 21 days, animals received a booster injection and approximately 4-5 weeks after the first injection there was an immune response with arthritis appearing in the extremities in the majority of the cases.
Four experimental groups were used in the study with 10 animals in each group:
Group D: Positive control: FCA+vehicle B.I.D.
Group E: Micronized Test Item (Micro) 10 mg/kg B.I.D.
Group F: Non-Micronized test item 10 mg/kg B.I.D.
Group G: Reference item: Indomethacin 1 mg/kg Q.D.
The dose administered to groups E and F was 10 mg/kg.
The dose administered to group G was 1 mg/kg.
The doses of the test and reference items were expressed as mg/Kg of compound administered to each animal.
The test and reference items were administered in a solution of methylcellulose (0.25%: vehicle).
The positive control group received the vehicle (methylcellulose 0.25%).
The test and reference items, as well as the vehicle were administered orally at a dosing volume of 5 mls/kg.
The route of administration used was oral by use of an intragastric cannula.
On the day of start of the study each mouse was injected subcutaneously at the base of the tail with a first dose of 0.1 ml of an emulsion of bovine type II collagen (1 mg/mL) in Freund's Complete Adjuvant. Afterwards, on day 21 after this first injection, a second booster injection of type II collagen was administered to all animals. In this occasion the collagen suspension was done using Incomplete Freund's Adjuvant.
Coinciding with the second booster injection on day 21 treatment with the test or reference items was started to the corresponding animals.
Treatment with the test or reference items was carried out for 31 consecutive days (days 21-51 of the experimental period). Additionally, a recovery period was included at the end of the treatment period from day 52 to day 65 in order to evaluate the duration of any anti-inflammatory effect observed once dosing has been terminated.
The animals' hind paw volume was measured by plethysmometry one day before the 1st injection of collagen, again one day before the second (booster) collagen injection (basal values) and then daily after administration of test/reference item until the end of the study. During the recovery period at the end of the study, hind paw volume was measured three times per week.
Additionally the data was also represented graphically, depicting changes in total hind paw volume, as well as oedema (differences from basal (day 21) values).

[1] = day 22, oral treatment days 21-51, listed as Group F
[2] = day 23, oral treatment days 21-51, listed as Group F
[3] = day 26, oral treatment days 21-51, listed as Group F
[4] = day 27, oral treatment days 21-51, listed as Group F
[5] = day 29, oral treatment days 21-51, listed as Group F
[6] = day 30, oral treatment days 21-51, listed as Group F
[7] = day 33, oral treatment days 21-51, listed as Group F
[8] = day 34, oral treatment days 21-51, listed as Group F
[9] = day 35, oral treatment days 21-51, listed as Group F
[10] = day 36, oral treatment days 21-51, listed as Group F
[11] = day 37, oral treatment days 21-51, listed as Group F
[12] = day 41, oral treatment days 21-51, listed as Group F
[13] = day 42, oral treatment days 21-51, listed as Group F
[14] = day 43, oral treatment days 21-51, listed as Group F
[15] = day 44, oral treatment days 21-51, listed as Group F
[16] = day 47, oral treatment days 21-51, listed as Group F
[17] = day 48, oral treatment days 21-51, listed as Group F
[18] = day 49, oral treatment days 21-51, listed as Group F
[19] = day 50, oral treatment days 21-51, listed as Group F
[20] = day 51, oral treatment days 21-51, listed as Group F
[21] = day 54, recovery period after treatment days 21-51, listed as Group F
[22] = day 56, recovery period after treatment days 21-51, listed as Group F
[23] = day 58, recovery period after treatment days 21-51, listed as Group F
[24] = day 61, recovery period after treatment days 21-51, listed as Group F
[25] = day 63, recovery period after treatment days 21-51, listed as Group F
[26] = day 65, recovery period after treatment days 21-51, listed as Group F

Oc1c(I)cc(I)cc1I [Non-Micronized, 2,4,6-triiodophenol]
Total hind paw volume (sum of both hind paws) (day 0, before collagen and treatment, listed as Group F): 0.189 | Total hind paw volume (sum of both hind paws) (day 20, basal, before treatment, listed as Group F): 0.243 | Oedema (difference in paw volume from basal values on day 21) in both hind paws [1]: −0.003 | Total hind paw volume (sum of both hind paws) [1]: 0.240 | Oedema (difference in paw volume from basal values on day 21) in both hind paws [2]: 0.007 | Total hind paw volume (sum of both hind paws) [2]: 0.250 | Oedema (difference in paw volume from basal values on day 21) in both hind paws [3]: 0.010 | Total hind paw volume (sum of both hind paws) [3]: 0.253 | Oedema (difference in paw volume from basal values on day 21) in both hind paws [4]: −0.001 | Total hind paw volume (sum of both hind paws) [4]: 0.242 | Oedema (difference in paw volume from basal values on day 21) in both hind paws [5]: 0.006 | Total hind paw volume (sum of both hind paws) [5]: 0.248 | Oedema (difference in paw volume from basal values on day 21) in both hind paws [6]: 0.016 | Total hind paw volume (sum of both hind paws) [6]: 0.259 | Oedema (difference in paw volume from basal values on day 21) in both hind paws [7]: 0.007 | Total hind paw volume (sum of both hind paws) [7]: 0.250 | Oedema (difference in paw volume from basal values on day 21) in both hind paws [8]: 0.011 | Total hind paw volume (sum of both hind paws) [8]: 0.254 | Oedema (difference in paw volume from basal values on day 21) in both hind paws [9]: 0.013 | Total hind paw volume (sum of both hind paws) [9]: 0.255 | Oedema (difference in paw volume from basal values on day 21) in both hind paws [10]: 0.011 | Total hind paw volume (sum of both hind paws) [10]: 0.254 | Oedema (difference in paw volume from basal values on day 21) in both hind paws [11]: 0.000 | Total hind paw volume (sum of both hind paws) [11]: 0.243 | Total hind paw volume (sum of both hind paws) (day 40, oral treatment days 21-51): 0.273 | Oedema (difference in paw volume from basal values on day 21) in both hind paws (day 40, oral treatment days 21-51, listed as Group F): 0.030 | Oedema (difference in paw volume from basal values on day 21) in both hind paws [12]: 0.028 | Total hind paw volume (sum of both hind paws) [12]: 0.271 | Oedema (difference in paw volume from basal values on day 21) in both hind paws [13]: 0.021 | Total hind paw volume (sum of both hind paws) [13]: 0.264 | Oedema (difference in paw volume from basal values on day 21) in both hind paws [14]: 0.013 | Total hind paw volume (sum of both hind paws) [14]: 0.255 | Oedema (difference in paw volume from basal values on day 21) in both hind paws [15]: 0.006 | Total hind paw volume (sum of both hind paws) [15]: 0.248 | Oedema (difference in paw volume from basal values on day 21) in both hind paws [16]: 0.031 | Total hind paw volume (sum of both hind paws) [16]: 0.273 | Oedema (difference in paw volume from basal values on day 21) in both hind paws [17]: 0.034 | Total hind paw volume (sum of both hind paws) [17]: 0.277 | Oedema (difference in paw volume from basal values on day 21) in both hind paws [18]: 0.039 | Total hind paw volume (sum of both hind paws) [18]: 0.281 | Oedema (difference in paw volume from basal values on day 21) in both hind paws [19]: 0.046 | Total hind paw volume (sum of both hind paws) [19]: 0.289 | Oedema (difference in paw volume from basal values on day 21) in both hind paws [20]: 0.046 | Total hind paw volume (sum of both hind paws) [20]: 0.288 | Oedema (difference in paw volume from basal values on day 21) in both hind paws [21]: 0.065 | Total hind paw volume (sum of both hind paws) [21]: 0.307 | Oedema (difference in paw volume from basal values on day 21) in both hind paws [22]: 0.062 | Total hind paw volume (sum of both hind paws) [22]: 0.304 | Oedema (difference in paw volume from basal values on day 21) in both hind paws [23]: 0.070 | Total hind paw volume (sum of both hind paws) [23]: 0.312 | Oedema (difference in paw volume from basal values on day 21) in both hind paws [24]: 0.063 | Total hind paw volume (sum of both hind paws) [24]: 0.31 | Oedema (difference in paw volume from basal values on day 21) in both hind paws [25]: 0.073 | Total hind paw volume (sum of both hind paws) [25]: 0.32 | Oedema (difference in paw volume from basal values on day 21) in both hind paws [26]: 0.072 | Total hind paw volume (sum of both hind paws) [26]: 0.31 | effect on hind paw oedema (in words) (test item 10 mg/kg BID, Indomethacin 1 mg/kg Q.D, oral): did not result in any significant inhibition

From patent publication US7935853B2, “Micronized composition of a 2,4-disubstituted phenol derivative” (priority 2008, dated 2011)
